{
  "source": "patent US12338229B2",
  "about": "“Small molecule stimulators of steroid receptor coactivator-3 and methods of their use as cardioprotective and/or vascular regenerative agents” (BAYLOR COLLEGE OF MEDICINE, priority 2018, dated 2025)",
  "key": {"[1]": {"assay": "Pharmacokinetics in CD-1 mice (plasma, HPLC-MS/MS)", "procedure": "Each of the three compounds was dissolved in DMSO (20 mg/mL), mixed with 30% hydroxypropyl-β-cyclodextrin at a 1:9 ratio, and administered to the CD-1 mice intraperitoneally (ip) or orally (po) through a gavage. After compound administration, blood samples (3 mice per compound) were collected at nine time points, i.e., at 5 minutes, 0.25 hours, 0.5 hours, 1 hour, 2 hours, 4 hours, 8 hours, 12 hours, and 24 hours, through the tail vein. Plasma was isolated from these blood samples and the compound plasma concentrations were determined by HPLC-MS/MS. Pharmacokinetic parameters were calculated using the program PKSolver, an add-in program for use in analyzing pharmacokinetic and pharmacodynamics data analysis, as described in Zhang et al., Computer Methods and Programs in Biomedicine, 99: 306-314 (2010)."}, "[2]": {"test_system": "SRC-1, SRC-2 or SRC-3 fused with the DNA binding domain of Gal4", "assay": "Gal4 luciferase reporter (pG5-luc / pBIND-SRC) in HeLa cells", "format": "cell-based", "conditions": "pG5-luc + pBIND-SRC-1, -2 or -3", "description": "The compounds described herein stimulate SRC intrinsic transcriptional activity. HeLa cells transfected with a Gal4 responsive luciferase reporter (pG5-luc) and a construct encoding SRC-1, SRC-2 or SRC-3 fused with the DNA binding domain of Gal4 (pBIND-SRC-1, pBIND-SRC-2 or pBIND-SRC-3) were exposed to treatments with compounds as described herein, including MCB-613, Compound 10-1, and Compound 10-2."}, "[3]": {"test_system": "mice after myocardial infarction", "assay": "Myocardial infarction model, permanent LAD ligation (echocardiography, histology, immunostaining, PET, EM)", "format": "in vivo, ICR (CD1) mice", "description": "Model of heart failure in adult mice. To induce myocardial infarction (MI) in 8- to 10-week-old mice, the left anterior descending (LAD) artery was permanently ligated. Briefly, mice were anesthetized with 2% isoflurane and then intubated. The heart was exposed by performing a thoracotomy through the fourth or fifth intercostal space and an 8-0 nylon suture was tied around the LAD artery. 10 uls of Adenoviral SRC-3 (Ad-SRC-3) or adenoviral GFP (Ad-GFP) at a titre of 9×10^9 pfu/ml was injected into the anterior free wall near left ventricular descending coronary artery. To assess cell cycle entry, the analog 5-ethynyl-2′-deoxyuridine (EdU; 0.2 g/L, Santa Cruz, SC-284628A) was added to the drinking water for the 9 day duration of the experiment. Cell proliferation was measured using Click-iT EdU kit (Invitrogen, C10339). The initial dose of MCB-613 was administered intraperitoneally at 20 mg/kg 2 hours after surgery. Subsequent injections of the same dose were given for 6 additional days, and then repeated doses were given for 3 days at week 9 and week 16. Mice were harvested at indicated time points for analyses.\nEchocardiography. Cardiac function was determined by echocardiography (VisualSonics, Vevo 2100, 40 Mhz-550S probe). After alignment in the transverse B-mode with the papillary muscles, cardiac function was measured on M-mode images.\nHistological analysis. Whole hearts were fixed with 10% formalin, embedded in paraffin, and sectioned at 7 μm intervals. Each slide had […], which started at the apex and ended at the suture ligation site (approximately 30-50 slides). Sections at the papillary level (slides 20-30) were stained with Picrosirius red to identify areas of fibrosis. Infarct size was determined using a length-based approach.\nImmunostaining analysis. Immunohistochemistry and immunofluorescent staining experiments were performed on FFPE (formalin-fixed and paraffin-embedded sections). TUNEL staining to detect apoptotic cells was done using the DeadEnd™ Fluorometric TUNEL System manufacturer's protocol (Promega, GS3250).\nModel of heart failure in adult mice. To induce MI in eight- to ten-week-old mice, the left anterior descending (LAD) artery was permanently ligated. Briefly, mice were anesthetized with 2% isoflurane and then intubated. The heart was exposed by performing a thoracotomy through the fourth or fifth intercostal space and an 8-0 nylon suture was tied around the LAD. The initial dose of MCB-613 was administered intraperitoneally at 20 mg/kg, two hours after surgery. Subsequent injection at the same time of the day and same dose were given for six additional days, and then repeated doses were given for three days at week nine and week 16. Mice were harvested at the indicated time points for analyses.\nEchocardiography. Cardiac function was determined by echocardiography (VisualSonics, Vevo 2100, 40 Mhz-550S probe). After alignment in the transverse B-mode with the papillary muscles, cardiac function was measured on M-mode images. Animal numbers for cardiac function in FIG. 11A are Day 0 control (17); MCB-613 (15), Day 1 control (10); MCB-613 (12), Day 14 […], Day 56 control (12); MCB-613 (15), Day 70 control (8); MCB-613 (10), Day 80 control (8); MCB-613 (11), Day 133 control (3); and MCB-613 (3).\nHistological analysis. Whole hearts were fixed with 10% formalin, embedded in paraffin, and sectioned at 7 μm intervals. Each slide had three (3) to ten (10) sections, which started at the apex and ended at the suture ligation site (approximately 30-50 slides). Sections at the papillary level (slides 20-30) were stained with Picrosirius red to identify areas of fibrosis. Infarct size was determined using a length-based approach. TUNEL staining to detect apoptotic cells was performed using the DeadEnd™ Fluorometric TUNEL System (Promega, GS3250).\nElectron Microscopy. […]"}},
  "note": "Several values for one entry are separate records, joined by “and”; a condition that tells them apart may be missing. Equal entries are not always repeated.",
  "data": [
    {"smiles": "CCC1C/C(=C\\c2cccnc2)C(=O)/C(=C/c2cccnc2)C1", "note": "(centres unmarked) [MCB-613]", "values": [
      {"measurement": "AUC(0-inf)", "setting": "[1]; intraperitoneal", "value": 129.6, "unit": "ng·h/mL"},
      {"measurement": "AUC(0-t)", "setting": "[1]; intraperitoneal", "value": 122.2, "unit": "ng·h/mL"},
      {"measurement": "Cl", "setting": "[1]; intraperitoneal", "value": "6.4 (mg)/(ng/mL)/h"},
      {"measurement": "Cmax", "setting": "[1]; intraperitoneal", "value": 49.2, "unit": "ng/mL"},
      {"measurement": "Terminal phase t1/2", "setting": "[1]; intraperitoneal", "value": 6.5, "unit": "h"},
      {"measurement": "Tmax", "setting": "[1]; intraperitoneal", "value": 4.8, "unit": "min"},
      {"measurement": "t1/2", "setting": "[1]; intraperitoneal", "value": 51.6, "unit": "min"},
      {"measurement": "AUC(0-inf)", "setting": "[1]; oral (gavage)", "value": 24.3, "unit": "ng·h/mL"},
      {"measurement": "AUC(0-t)", "setting": "[1]; oral (gavage)", "value": 15.7, "unit": "ng·h/mL"},
      {"measurement": "Cl", "setting": "[1]; oral (gavage)", "value": "34 (mg)/(ng/mL)/h"},
      {"measurement": "Cmax", "setting": "[1]; oral (gavage)", "value": 5.6, "unit": "ng/mL"},
      {"measurement": "Terminal phase t1/2", "setting": "[1]; oral (gavage)", "value": 16.1, "unit": "h"},
      {"measurement": "Tmax", "setting": "[1]; oral (gavage)", "value": 15, "unit": "min"},
      {"measurement": "t1/2", "setting": "[1]; oral (gavage)", "value": 56.4, "unit": "min"},
      {"measurement": "intrinsic transcriptional activity of SRCs (luciferase)", "setting": "[2]", "value": "selectively stimulates the intrinsic transcriptional activity of SRCs"},
      {"measurement": "18F-FDG uptake in infarct zone (cardiac PET)", "setting": "[3]; 2 weeks post-MI", "value": "Improved ^18F-FDG uptake in the infarct zone"},
      {"measurement": "infarct size vs saline control", "setting": "[3]; 10 weeks post-MI, picrosirius red", "value": "decrease in infarct size"},
      {"measurement": "heart weight (vs tibia length), cardiomegaly", "setting": "[3]; 12 weeks post-MI", "value": "attenuated the MI-induced cardiomegaly compensatory response"},
      {"measurement": "cardiomyocyte size and fibrosis in infarct border zone", "setting": "[3]; 12 weeks post-MI, Picrosirius red", "value": "cardiomyocytes were smaller and associated with less fibrosis in the infarct border zone"},
      {"measurement": "infarct size (Picrosirius red, % length)", "setting": "[3]; 12 weeks post-MI, individual hearts, control 31% and 44%", "value": "3% and 14% and 20% and 22%"},
      {"measurement": "apoptosis (TUNEL)", "setting": "[3]; 24 hours post-MI", "value": "prevents apoptosis"},
      {"measurement": "average ejection fraction", "setting": "[3]; 24 hours post-MI, 20 mg/kg ip two hours post-MI, control 30%", "value": 43, "unit": "%"},
      {"measurement": "LYZ1 granule expression in myocardium", "setting": "[3]; 24 hours post-MI, vs control", "value": "LYZ1 granule expression was significantly increased"},
      {"measurement": "myofibrillar and mitochondrial structure (electron micrographs)", "setting": "[3]; 72 hours post-MI", "value": "prevent disorganization of myofibrillar structure and abnormal mitochondrial cristal architecture"},
      {"measurement": "ejection fraction maintained", "setting": "[3]; from 24 hours until 19 weeks post-MI, 20 mg/kg ip 2 h post-MI and six additional days", "value": "above 40%"},
      {"measurement": "angiogenesis in infarct border zone (CD31 immunostain)", "setting": "[3]; three days post-MI, treated two hours post-MI", "value": "Increased angiogenesis was observed in the infarct border zone"}
    ]}
  ]
}
